From patent publication US12624018B1, “Inhibitors of RIPK2 and medical uses thereof” (Odyssey Therapeutics, Inc., priority 2022, dated 2026)
Where two headings read alike, the source gives them in different places.

Assays:
[1] = molecular target: T1, RIPK2 and XIAP protein-protein interaction (Homo sapiens, UniProt O43353); experiment: Inhibition of the interaction of RIPK2 with XIAP (NanoBRET in HEK293T cells); type: cell-based; conditions: RIPK2 HaloTag / XIAP NanoLuc, read-out: NanoBRET Scaffolding IC50
T1 construct: the N-terminus of full-length RIPK2 was appended with the HaloTag fusion protein; expressed in transfected cells; host or cells: HEK293T
T1 sequence (O43353 whole entry, the tested form may be a part): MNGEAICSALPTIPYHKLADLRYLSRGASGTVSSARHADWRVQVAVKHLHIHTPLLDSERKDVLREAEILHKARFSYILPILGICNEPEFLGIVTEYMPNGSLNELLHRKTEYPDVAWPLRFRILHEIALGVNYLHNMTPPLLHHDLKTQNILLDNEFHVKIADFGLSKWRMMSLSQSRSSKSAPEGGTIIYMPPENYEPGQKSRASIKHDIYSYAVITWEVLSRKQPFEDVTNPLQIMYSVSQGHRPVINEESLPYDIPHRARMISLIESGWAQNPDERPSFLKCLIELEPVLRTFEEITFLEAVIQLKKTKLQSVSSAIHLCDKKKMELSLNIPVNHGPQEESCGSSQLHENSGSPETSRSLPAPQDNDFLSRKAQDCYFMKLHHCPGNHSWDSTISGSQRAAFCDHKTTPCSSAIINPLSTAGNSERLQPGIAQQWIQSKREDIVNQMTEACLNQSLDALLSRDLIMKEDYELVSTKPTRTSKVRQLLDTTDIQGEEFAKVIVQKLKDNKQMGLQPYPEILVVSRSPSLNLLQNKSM
Description: An assay measuring the RIPK2 and XIAP protein-protein interaction was generated using the NanoBRET protein:protein interaction system (Promega) which measures the energy transfer from a bioluminescent protein donor (NanoLuc fusion protein) to a fluorescent protein acceptor (Halotag fusion protein). In this assay, the C-terminus of full-length XIAP was appended with the NanoLuc fusion protein and the N-terminus of full-length RIPK2 was appended with the HaloTag fusion protein. Assay medium consisted of Opti-MEM I reduced serum medium with no phenol red plus 4% heat inactivated FBS. Transfection reagents were combined in a microfuge tube as follows: 400 μL of assay medium, 8 μL of vector with N-terminus of RIPK2 HaloTag fusion protein (vector concentration at 1 μg/μL), 0.8 μL of vector with C-terminus of XIAP NanoLuc fusion protein (vector concentration at 1 μg/μL), and 24 μL of FuGENE HD transfection reagent (Promega, catalogue number E2312). […] Test compounds were prepared into a 10 mM DMSO solution and were serially diluted into 10 points using a 3-fold dilution in a 384 well plate using a TECAN EV0200.
Method: HEK293T cells were transfected with the RIPK2 HaloTag fusion and XIAP NanoLuc fusion vectors in suspension. […] Transfection reagents were pre-mixed and incubated at room temperature for 30 minutes. Then the total transfection reagent mixture was added dropwise to the 16 mL cell suspension and mixed gently. 40 μL of the cells and transfection reagent suspension was plated into a white 384 well plate and incubated at 37° C. in a CO2 incubator for 24 hours. […] Lastly, a 3× solution of NanoBRET Nano-Glo substrate in Opti-MEM I reduced serum media (no phenol red; 20 μL total volume) was added to each well and incubated for 2-3 minutes at room temperature. The plate was then measured using 460 nm filter (donor emission) and 618 nm filter (acceptor emission) in an EnVision multimode plate reader (PerkinElmer). The NanoBRET ratio values were determined by dividing the acceptor emission value by the donor emission value for each sample.

RIPK2 enzyme = molecular target: T2, RIPK2 enzyme (Homo sapiens, UniProt O43353); experiment: RIPK2 inhibition (ADP-Glo Kinase Assay); type: biochemical; conditions: RIPK2 5 nM, ATP 150 μM, MBP substrate, read-out: RIPK2 IC50
T2 construct: purchased Carna 09-128
T2 sequence (O43353 1-299 limits assumed): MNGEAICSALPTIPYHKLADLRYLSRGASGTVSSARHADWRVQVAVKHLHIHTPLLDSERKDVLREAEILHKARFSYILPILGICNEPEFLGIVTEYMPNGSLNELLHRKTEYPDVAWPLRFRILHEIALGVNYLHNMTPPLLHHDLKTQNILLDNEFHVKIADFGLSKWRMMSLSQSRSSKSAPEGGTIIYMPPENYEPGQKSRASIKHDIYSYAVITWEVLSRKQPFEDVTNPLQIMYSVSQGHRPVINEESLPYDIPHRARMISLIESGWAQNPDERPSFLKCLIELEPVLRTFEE
In short: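 Human RIPK2 (5 nM) preincubated with compound 30 min at room temperature in 50 mM HEPES pH 7.5, 10 mM MgCl2, 2 mM DTT, 1 mM EGTA, 0.01% Brij-35, 0.05% BSA; native swine MBP as substrate. ADP formed quantified by ADP-Glo luminescence; percent inhibition relative to DMSO and no-enzyme controls.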

human NOD2 signaling = experiment: Inhibition of human NOD2 signaling in HEK-Blue-hNOD2 cells (L18-MDP stimulated, SEAP reporter); type: cell-based; conditions: NOD2 ligand stimulation, SEAP reporter, read-out: hNOD2 IC50
In short: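 HEK-Blue-hNOD2 cells (HEK293 with NOD2 and SEAP reporter), 12500/well, treated with 10-point 3-fold compound dilutions plus L18-MDP 0.5 ng/mL final, 24 h at 37 °C. Supernatant SEAP read with QUANTI-Blue after 3 h at 620 nm; IC50 by 4-parameter fit vs DMSO±L18-MDP controls.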

[2] = Homo sapiens, HEK-Blue hNOD2, HEK-Blue-hNOD2 cells

IC50 [1]	IC50 (RIPK2 enzyme)	IC50 (human NOD2 signaling; [2])	IC50 (human NOD2 signaling; HEK-Blue-hNOD2 cells)	SMILES
179 nM	< 2.5 nM	24.4 nM		Cc1cc(CC(=O)Nc2cnn(C(C)(C)C)c2)c(F)cc1Oc1ccnc2ccc(C(C)(C)C(N)=O)cc12 [Compound 568, 2-(4-(4-(2-((1-(tert-butyl)-1H-pyrazol-4-yl)amino)-2-oxoethyl)-5-fluoro-2-methylphenoxy)quinolin-6-yl)-2-methylpropanamide]
60.9 nM	< 2.5 nM		1.7 nM	Cc1cc(CC(=O)Nc2cnn(C(C)(C)C)c2)ccc1Oc1ccnc2ccc(S(=N)(=O)C3CCC3)cc12 (single isomer, unassigned) [Compound 552, N-(1-(tert-butyl)-1H-pyrazol-4-yl)-2-(4-((6-(cyclobutane-sulfonimidoyl)quinolin-4-yl)oxy)-3-methylphenyl) acetamide]
44.6 nM	< 2.5 nM	1.3 nM		Cc1cc(CC(=O)Nc2cnn(C(C)(C)C)c2)cc(Cl)c1Oc1ccnc2cc(F)c(C(N)=O)cc12 [Compound 584, 4-(4-(2-((1-(tert-butyl)-1H-pyrazol-4-yl)amino)-2-oxoethyl)-2-chloro-6-methylphenoxy)-7-fluoroquinoline-6-carboxamide]
311 nM	< 2.5 nM	2.7 nM		CC1(NC(=O)c2ccc3nccc(Oc4cc(F)c(CC(=O)Nc5cnn(C(C)(C)C)c5)cc4Cl)c3c2)CC1 [Compound 517, 4-(4-(2-((1-(tert-butyl)-1H-pyrazol-4-yl)amino)-2-oxoethyl)-2-chloro-5-fluorophenoxy)-N-(1-methylcyclopropyl)quinoline-6-carboxamide]
103 nM	< 2.5 nM	1 nM		Cc1cc(CC(=O)Nc2cnn(C(C)(C)C)c2)cc(Cl)c1Oc1ccnc2ccc(C(N)=O)cc12 [Compound 516, 4-(4-(2-((1-(tert-butyl)-1H-pyrazol-4-yl)amino)-2-oxoethyl)-2-chloro-6-methylphenoxy)quinoline-6-carboxamide]
75 nM	< 2.5 nM	14.3 nM		Cc1cc(CC(=O)Nc2cnn(C34CC(C3)C4)c2)ccc1Oc1ccnc2ccc(S(=N)(=O)C3CC3)cc12 (single isomer, unassigned) [Compound 529, N-(1-(bicyclo[1.1.1]pentan-1-yl)-1H-pyrazol-4-yl)-2-(4-((6-(cyclopropanesul-fonimidoyl)quinolin-4-yl)oxy)-3-methylphenyl) acetamide]
61.1 nM	< 2.5 nM	1.2 nM		Cc1c(Oc2ccnc3ccc(CS(C)(=O)=O)cc23)cc(F)c(CC(=O)Nc2cnn(C(C)(C)C)c2)c1F [Compound 562, N-(1-(tert-butyl)-1H-pyrazol-4-yl)-2-(2,6-difluoro-3-methyl-4-((6-((methylsulfonyl)methyl)quinolin-4-yl)oxy)phenyl)acetamide]
170 nM	< 2.5 nM	1.4 nM		CNC(=O)c1ccc2nccc(Oc3c(C)cc(CC(=O)Nc4cnn(C(C)(C)C)c4)cc3Cl)c2c1 [Compound 515, 4-(4-(2-((1-(tert-butyl)-1H-pyrazol-4-yl)amino)-2-oxoethyl)-2-chloro-6-methylphenoxy)-N-methylquinoline-6-carboxamide]
87.1 nM	< 2.5 nM	1.7 nM		Cc1cc(CC(=O)Nc2cnn(C(C)(C)C)c2)ccc1Oc1ccnc2ccc(S(=N)(=O)C3CCC3)cc12 (single isomer, unassigned) [Compound 551, N-(1-(tert-butyl)-1H-pyrazol-4-yl)-2-(4-((6-(cyclobutanesulf-onimidoyl)quinolin-4-yl)oxy)-3-methylphenyl) acetamide]

The remaining lines, values behind:

SMILES	IC50 [1]	IC50 (RIPK2 enzyme)	IC50 (human NOD2 signaling; [2])	IC50 (human NOD2 signaling; HEK-Blue-hNOD2 cells)
CNC(=O)c1cc2c(Oc3ccc(CC(=O)Nc4cnn(C(C)(C)C)c4)cc3C)ccnc2cc1F [Compound 490, 4-(4-(2-((1-(tert-butyl)-1H-pyrazol-4-yl)amino)-2-oxoethyl)-2-methylphenoxy)-7-fluoro-N-methylquinoline-6-carboxamide]	24.2 nM	< 2.5 nM	0.1 nM	
Cc1nnc(-c2ccc3nccc(Oc4cc(F)c(CC(=O)Nc5cnn(C(C)(C)C)c5)cc4C)c3c2)o1 [Compound 482, N-(1-(tert-butyl)-1H-pyrazol-4-yl)-2-(2-fluoro-5-methyl-4-((6-(5-methyl-1,3,4-oxadiazol-2-yl)quinolin-4-yl)oxy)phenyl)acetamide]	4.6 nM	< 2.5 nM	0.3 nM	
Cc1cc(CC(=O)Nc2cnn(C(C)(C)C)c2)ccc1Oc1ccnc2cc(C)c(S(C)(=O)=O)cc12 [Compound 495, N-(1-(tert-butyl)-1H-pyrazol-4-yl)-2-(3-methyl-4-((7-methyl-6-(methylsulfonyl)quinolin-4-yl)oxy)phenyl)acetamide]	70.8 nM	< 2.5 nM	0.5 nM	
CNC(=O)c1ccc2nccc(Oc3cc(F)c(CC(=O)Nc4cnn(C(C)(C)C)c4)cc3Cl)c2c1 [Compound 498, 4-(4-(2-((1-(tert-butyl)-1H-pyrazol-4-yl)amino)-2-oxoethyl)-2-chloro-5-fluorophenoxy)-N-methylquinoline-6-carboxamide]	13.7 nM	< 2.5 nM	0.4 nM	
CNC(=O)c1ccc2nccc(Oc3ccc(CC(=O)Nc4cnn(C56CC(C5)C6)c4)cc3C)c2c1 [Compound 500, 4-(4-(2-((1-(bicyclo[1.1.1]pentan-1-yl)-1H-pyrazol-4-yl)amino)-2-oxoethyl)-2-methylphenoxy)-N-methylquinoline-6-carboxamide]	7.4 nM	< 2.5 nM	0.4 nM	
Cc1cc(CC(=O)Nc2cnn(C(C)(C)C)c2)c(F)cc1Oc1ccnc2ccc(S(=N)(=O)C3CC3)cc12 (single isomer, unassigned) [Compound 466, N-(1-(tert-butyl)-1H-pyrazol-4-yl)-2-(4-((6-(cyclopropane-sulfonimidoyl)quinolin-4-yl)oxy)-2-fluoro-5-methylphenyl) acetamide]	48 nM	< 2.5 nM	2.5 nM	
Cc1cc(CC(=O)Nc2cnn(C(C)(C)C)c2)c(F)cc1Oc1ccnc2cc(C)c(S(C)(=O)=O)cc12 [Compound 496, N-(1-(tert-butyl)-1H-pyrazol-4-yl)-2-(2-fluoro-5-methyl-4-((7-methyl-6-(methylsulfonyl)quinolin-4-yl)oxy)phenyl)acetamide]	127 nM	< 2.5 nM	0.5 nM	
Cc1cc(CC(=O)Nc2cnn(C(C)(C)C)c2)ccc1Oc1ccnc2cc(F)c(C(N)=O)cc12 [Compound 489, 4-(4-(2-((1-(tert-butyl)-1H-pyrazol-4-yl)amino)-2-oxoethyl)-2-methylphenoxy)-7-fluoroquinoline-6-carboxamide]	7.1 nM	< 2.5 nM	0.1 nM	
Cc1cc(CC(=O)Nc2cnn(C34CC(C3)C4)c2)c(F)cc1Oc1ccnc2ccc(C(N)=O)cc12 [Compound 501, 4-(4-(2-((1-(bicyclo[1.1.1]pentan-1-yl)-1H-pyrazol-4-yl)amino)-2-oxoethyl)-5-fluoro-2-methylphenoxy)quinoline-6-carboxamide]	62.9 nM	< 2.5 nM	2.2 nM	
Cc1cc(CC(=O)Nc2cnn(C(C)(C)C)c2)ccc1Oc1ccnc2ccc(C(N)=O)cc12 [Compound 487, 4-(4-(2-((1-(tert-butyl)-1H-pyrazol-4-yl)amino)-2-oxoethyl)-2-methylphenoxy)quinoline-6-carboxamide]	47.5 nM	< 2.5 nM	0.3 nM	
